Measured values published in patent publication US20200236933A1, “USE OF A NON-IONIC SURFACTANT WHICH IS A POLYOL DERIVATIVE AS A PLANT GROWTH STIMULATING AGENT OR AS AN ADJUVANT” (priority 2017, published 2020).

How the values were obtained:
maize seeds [1] = experiment: Root growth (rootlets) of maize seeds; type: in vivo; settings: maize seeds immersed 1 h in 2.5% solution; after two days
Procedure: (§1) The seeds are next dried in a heating tunnel at 45° C. for one hour. Four batch repetitions of 16 seeds are deposited on Petri dishes containing a medium composed of 2% Agar Agar and 98% water.
The Petri dishes are kept at ambient temperature and in darkness.

[2] = tested on: detached leaves of Buddleja davidii; experiment: Persistence of the mixture at the foliar surface; settings: 1% with 0.1% colorant; rinses with water
Procedure: The effect of the invention on the persistence of the mixture was evaluated after spraying a solution colored blue on detached leaves of Buddleja davidii.
After spraying, the leaves are left at ambient temperature until the sprayed solution has evaporated.
Next, several operations of rinsing the leaves with water are carried out. The rinse water is collected after each rinse and photographs are taken to observe and compare the coloration of the rinse waters. An absorbance measurement at 630 nm is also carried out by spectrophotometry.

Aspergillus niger = experiment: Fungicide effect by antibiogram type method; type: cell-based
Excerpt: In order to evaluate any impact of the sugar esters used according to the invention on microorganisms, the fungicide effect was searched for by an antibiogram type method. The method consists of: • spreading a solution contaminated with the mold Aspergillus niger on the surface of a Petri dish containing glucose gel growth medium with chloramphenicol. • arrange 4 sterile antibiogram disks of 6 mm diameter per Petri dish. • inoculate with 3 drops (0.071 g) of solution to test or control solution per disk. The dishes are next placed in the incubator at 25° C. for 5 days. Measurement of the inhibitory diameter is carried out every day.

soybeans = experiment: Germination of soybeans after immersion treatment; type: in vivo; settings: soybeans immersed 1 h in 0.75% solution
Procedure: The beans are next dried in a heating tunnel at 45° C. for one hour. Four batch repetitions of 15 beans are deposited on Petri dishes containing a medium composed of 2% Agar Agar and 98% water.
The Petri dishes are kept at ambient temperature and in darkness. Each day the number of germinated beans (having a radicle) is counted.

strawberry leaves = experiment: Spreading of an aqueous solution on a leaf; type: in vivo; settings: 0.75% solution sprayed on strawberry leaves
Procedure: Strawberry plants in pots are grown in a climate-controlled chamber in the following conditions: 23° C. and a photoperiod of 16 h/8 h.

Helminthosphaeria = experiment: Reduction of phytosanitary products on maize; type: in vivo, maize (P7043, Pioneer); settings: 25% of recommended dose (0.25 L/ha Amistar + 0.6 L/ha Cicero) plus 3 L/ha sucrose stearate; 12-14 leaf stage
Procedure: Assays in a climate-controlled chamber were carried out on maize ([…], Pioneer). The maize was sowed in containers of 1 meter by 1 meter. […] […]® comprises the active ingredient: azoxystrobin (belonging to the strobilurin family), and Cicero® comprises two active ingredients: chlorothalonil (belonging to the chloronitrile family), and flutriafol (belonging to the triazole family). […] The containers were then taken out of the climate-controlled chamber and disposed near a field having more than 50% of maize plants diseased with Helminthosphaeria. After 1 day, the containers were placed back in the climate-controlled chamber under controlled conditions.

Septoria leaf spot = experiment: Reduction of phytosanitary products on wheat; type: in vivo, soft winter wheat (GARCIA variety); settings: 25% of recommended dose (0.15 L/ha Priaxor + 0.15 L/ha Reimer Pro) plus 3 L/ha sucrose stearate; start of coming into ear
Procedure: Assays in a climate-controlled chamber were carried out on soft winter wheat (GARCIA variety, Arvalis). The wheat was sowed in containers of 1 meter by 1 meter. […] Priaxor® comprises two active ingredients: fluxapyroxad (belonging to the SDHI family) and pyraclostrobin (belonging to the strobilurin family) and Reimer® Pro comprises the active ingredient metconazole (belonging to the triazole family).
The containers were then taken out of the climate-controlled chamber and disposed near a field having more than 50% of wheat plants diseased with Septoria leaf spot. After 1 day, the containers were placed back in the climate-controlled chamber under controlled conditions.

maize seeds [3] = experiment: Germination of maize seeds after immersion treatment (Example 2); type: in vivo; settings: maize seeds immersed 1 h in 0.75% solution
Procedure: as §1
(§2) The Petri dishes are kept at ambient temperature and in darkness. Each day the number of seeds that have germinated (having a radicle) is counted.

[4] = Formation of foam on preparing the mixture; type: physicochemical; settings: 1% with 1% Cocamidopropyl betaine
Procedure: The two solutions were next stirred in equivalent manner, the photographs being taken before, immediately after stirring and 1 h after stirring.

parsley seeds = experiment: Germination of parsley seeds after immersion treatment; type: in vivo; settings: parsley seeds immersed 1 h in 0.75% solution
Procedure: The seeds are next dried in a heating tunnel at 45° C. for one hour. Two batch repetitions of 48 seeds are deposited on Petri dishes containing a medium composed of 2% Agar Agar and 98% water.
as §2

[5] = pH modification of the mixture; type: physicochemical; settings: increasing concentration of the 2.5% sucrose stearate solution added to a solution at pH 9.4
parsley plants = experiment: Protein content of parsley; type: in vivo; settings: 40 ml of 0.75% solution every three days, 23 days
Procedure: Each batch consists of four pots. After 23 days of treatment the leaves are cut and an analysis of the amount of protein is carried out.

[6] = tested on: flat-leaf parsley variety NOVAS; experiment: Vertical anchoring of the root, assays in fields; type: in vivo; settings: seeds immersed 1 h in 2.5% solution; 12 weeks after sowing
Procedure: In order to test the effect of the invention in conditions of crops in the field, the flat-leaf parsley variety NOVAS is used.
The seeds are next dried in a heating tunnel at 45° C. for 1 h.
The seeds are mechanically sown (seeder) on strips of four rows each one beside the other to limit as much as possible the variations in soil quality, insulation and temperature.
12 weeks after sowing, 25 parsley plants were harvested in order to observe root morphology.

parsley leaves = experiment: Calcium content of the leaves; type: in vivo; settings: 3% solution, watering every three days and spraying twice daily, seven days
Excerpt: After seven days of treatment, the leaves are harvested and analyzed to determine their calcium content.

With sucrose stearate the “rootlets on the germinated seeds” value (maize seeds [1]) was “rootlet presence is observed”, the “persistence of the mixture on rinsing” value [2] was “still present even after the 4th rinse” and the Inhibitory diameter (Aspergillus niger; 0.1% solution, D1) was 0 mm. For the same substance, the Inhibitory diameter (Aspergillus niger; 0.1% solution, D2) was 0 mm, the Inhibitory diameter (Aspergillus niger; 0.1% solution, D3) was 0 mm and the Inhibitory diameter (Aspergillus niger; 0.1% solution, D4) was 0 mm. The Inhibitory diameter (Aspergillus niger; 0.1% solution, D5) was 0 mm, the Inhibitory diameter (Aspergillus niger; 1% solution, D1) was 0 mm and the Inhibitory diameter (Aspergillus niger; 1% solution, D2) was 0 mm. For the same substance, the Inhibitory diameter (Aspergillus niger; 1% solution, D3) was 0 mm, the Inhibitory diameter (Aspergillus niger; 1% solution, D4) was 0 mm and the Inhibitory diameter (Aspergillus niger; 1% solution, D5) was 0 mm. It also gave an Inhibitory diameter (Aspergillus niger; 3% solution, D1) of 0 mm, an Inhibitory diameter (Aspergillus niger; 3% solution, D2) of 0 mm and an Inhibitory diameter (Aspergillus niger; 3% solution, D3) of 0 mm. For the same substance, the Inhibitory diameter (Aspergillus niger; 3% solution, D4) was 0 mm, the Inhibitory diameter (Aspergillus niger; 3% solution, D5) was 0 mm and the Inhibitory diameter (Aspergillus niger; 10% solution, D1) was 0 mm. The Inhibitory diameter (Aspergillus niger; 10% solution, D2) was 0 mm, the Inhibitory diameter (Aspergillus niger; 10% solution, D3) was 0 mm and the Inhibitory diameter (Aspergillus niger; 10% solution, D4) was 0 mm. The Inhibitory diameter (Aspergillus niger; 10% solution, D5) was 0 mm, the fungicide effect (Aspergillus niger; whatever the concentrations tested (0.1-10%)) was “no fungicide effect” and the “increase of the germination kinetics on average” value (shortened to “increase … on average”) (soybeans) was 25%. The “germinated seeds, treated batch compared with the control batch” value (soybeans; after 1 day) was 4 times, the “distribution of the solution on the leaf (spreading of the drops)” value (strawberry leaves) was “distributed evenly over the leaf” and the “passage of the solution onto the lower face compared with the control batch” value (strawberry leaves) was “much greater passage of the solution onto the lower face”. For the same substance, the “plants presenting Helminthosphaeria spots” value (Helminthosphaeria) was “less than 10%”, the “plants diseased with Septoria leaf spot” value (Septoria leaf spot) was 20% and the “increase … on average” value (maize seeds [3]) was 30%. For the same substance, the “germinated seeds, treated batch compared with the control batch” value (maize seeds [3]; after 2 days) was 10 times, the “reduction of the volume of foam immediately after stirring” value [4] was 30% and the “increase … on average” value (parsley seeds) was 10%. For the same substance, the “germinated seeds, treated batch compared with the control batch” value (parsley seeds; between 4 days and 6 days) was 2 times, the “pH at which the mixture stabilizes” value [5] was 5.25 and the “increase in the protein amount compared with the control batch” value (parsley plants) was 56%. For the same substance, the root morphology [6] was “root elongation, coupled with vertical anchorage of the roots” and the “reduction in the level of calcium in the leaves” value (parsley leaves) was 17%.
